Reference: PubChem BioAssay AID1963846 (Molecular Pharmacology Branch, DTP, NCI, 2024)
Values joined by “and” are separate entries in the source; they are usually repeats but may differ in a detail not shown here. Identical values can stand only once.

Test system: 454973-116-R2-J3-PDC complex spheroid viability
Experiment: Anticancer human tumor 454973-116-R2-J3-PDC patient-derived pancreatic carcinoma cell line growth inhibition [POLQ]
Settings: for viability, T/C: stronger effect = lower value
Procedure: Multicellular complex tumor spheroid response to Polymerase (POL) inhibitors (novobiocin, ART-558, RP6685) in combination with a variety of drugs and investigational agents in selected tumor cell lines
The POL inhibitors (novobiocin, ART-558, and RP6685) were evaluated both individually and in combination with standard of care and investigational anticancer small molecules within a complex spheroid model of solid tumors. . Complex spheroids include a stromal component modeled by human endothelial cells (HUVEC) and fibroblasts modeled by human mesenchymal stem cells (MSCs). The concentration ranges selected for each drug and investigational agent were based upon clinically achievable concentrations if the clinical Cmax of the agent was known.
Compounds. The drugs and investigational agents: novobiocin (NSC847541), ART-558 (NSC835418), RP-6685 (NSC848927), peposertib (NSC802822), ceralasertib (NSC780249), elimusertib (NSC800525), camonsertib (NSC841442), AZD-1390 (NSC803789), olaparib (NSC753686), talazoparib (NSC767125), rucaparib (NSC756644), sotorasib (NSC818433), MRTX-1133 (NSC836407), SN-38 (NSC673596), topotecan (NSC609699), epotoside (NSC141540), doxorubicin (NSC123127), gemcitabine (NSC613327), 5-fluorouracil (NSC19893), paclitaxel (NSC125973), vemurafenib (NSC761431), MSA-2 (NSC828583), SN-011 (NSC837082), adavosertib (NSC754352), prexasertib (NSC758257), carboplatin (NSC241240) and oxaliplatin (NSC266046), were obtained from the National Cancer Institute (NCI) Developmental Therapeutics Program Chemical Repository (21). The FDA-approved anticancer drug set is available from the Developmental Therapeutics Program at https://dtp.cancer.gov/organization/dscb/obtaining/. […] The stock solutions were prepared in dimethyl sulfoxide (DMSO, Sigma-Aldrich, St. Louis, MO, cat. D2650), except for the platinum compounds which were prepared in saline (Quality Biological, Gaithersburg, MD, cat. 114-055-101), at 800-fold the tested concentration and stored at -70 degrees C prior to their use. All drugs and investigational agents were tested over a range starting from a high concentration at or near the clinical Cmax and decreasing in half-log increments. If the clinical Cmax for an agent had not been determined, the highest concentration tested was 10 microM, except for SN-38, which was tested at a high concentration of 1 microM.
Cell Culture. All cells were maintained in an incubator at 37 degrees C and 5% CO2 with 95% humidity. The PDC lines were cultured according to standard operating procedures established by the NCI PDMR (https://pdmr.cancer.gov). Table 3 of the manuscript, lists the cell lines along with the number of the three cell types plated to form the mct-spheroids and media for tumor cell growth. After thawing, all PDC lines, except 997537-175-T-J1-PDC and 415267-285-R-J2-PDC, were cultured in Matrigel-coated flasks prepared with a working solution of 1X Ham's F-12 nutrient mix, without supplementation (Thermo Fisher Scientific, cat. 11765054), 100 U/mL penicillin-streptomycin (Thermo Fisher Scientific, cat. 15140122), and 2.5% Matrigel (Corning Inc., Corning, NY, cat. 354248) for the first three passages. The two PDC lines 997537-175-T-J1-PDC and 415267-285-R-J2-PDC were cultured on uncoated flasks. The 857933-349-R-J2-PDC line was cultured in 6C/Colon 1B media containing advanced DMEM/F-12 (Thermo Fisher Scientific, cat. 12634028), 10 mM HEPES (Thermo Fisher Scientific, cat. 15630080), 1X GlutaMAX supplement (Thermo Fisher Scientific, cat. 35050061), 0.1 mg/mL primocin (InvivoGen, San Diego, CA, cat. ant-pm-2), 10% defined fetal bovine serum, heat inactivated (HyClone Laboratories Inc., Logan, UT, cat. SH30070.03HI), 50% L-WRN conditioned media (ATCC, cat. CRL-3276), 1.25 mM N-Acetyl-L-cysteine (Sigma-Aldrich, cat. A9165), 10 mM nicotinamide (Sigma-Aldrich, cat. N0636), 1X B-27 supplement (Thermo Fisher Scientific, cat. 17504044), 1X N-2 supplement (Thermo Fisher Scientific, cat. […]

[1] = curve of first compound, second compound 0.0316 µM
[2] = curve of first compound, second compound 0.1 µM
[3] = curve of first compound, second compound 0.316 µM
[4] = curve of first compound, second compound 1 µM
[5] = curve of first compound, second compound 3.16 µM
[6] = curve of first compound, second compound 10 µM
[7] = second compound 0.0316 µM, first compound 0.0316 µM
[8] = second compound 0.0316 µM, first compound 0.1 µM
[9] = second compound 0.0316 µM, first compound 0.316 µM
[10] = second compound 0.0316 µM, first compound 1 µM
[11] = second compound 0.0316 µM, first compound 3.16 µM
[12] = second compound 0.0316 µM, first compound 10 µM
[13] = second compound 0.1 µM, first compound 0.0316 µM
[14] = second compound 0.1 µM, first compound 0.1 µM
[15] = second compound 0.1 µM, first compound 0.316 µM
[16] = second compound 0.1 µM, first compound 1 µM
[17] = second compound 0.1 µM, first compound 3.16 µM
[18] = second compound 0.1 µM, first compound 10 µM
[19] = second compound 0.316 µM, first compound 0.0316 µM
[20] = second compound 0.316 µM, first compound 0.1 µM
[21] = second compound 0.316 µM, first compound 0.316 µM
[22] = second compound 0.316 µM, first compound 1 µM
[23] = second compound 0.316 µM, first compound 3.16 µM
[24] = second compound 0.316 µM, first compound 10 µM
[25] = second compound 1 µM, first compound 0.0316 µM
[26] = second compound 1 µM, first compound 0.1 µM
[27] = second compound 1 µM, first compound 0.316 µM
[28] = second compound 1 µM, first compound 1 µM
[29] = second compound 1 µM, first compound 3.16 µM
[30] = second compound 1 µM, first compound 10 µM
[31] = second compound 3.16 µM, first compound 0.0316 µM
[32] = second compound 3.16 µM, first compound 0.1 µM
[33] = second compound 3.16 µM, first compound 0.316 µM
[34] = second compound 3.16 µM, first compound 1 µM
[35] = second compound 3.16 µM, first compound 3.16 µM
[36] = second compound 3.16 µM, first compound 10 µM
[37] = second compound 10 µM, first compound 0.0316 µM
[38] = second compound 10 µM, first compound 0.1 µM
[39] = second compound 10 µM, first compound 0.316 µM
[40] = second compound 10 µM, first compound 1 µM
[41] = second compound 10 µM, first compound 3.16 µM
[42] = second compound 10 µM, first compound 10 µM
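Further: spheroids exposed to drugs for seven days before measurement.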
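Wherever viability, T/C is given: percent viability relative to DMSO vehicle control wells taken as 100%.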

SMILES: COc1cccc2c1C(=O)c1c(O)c3c(c(O)c1C2=O)CC(O)(C(=O)CO)CC3OC1CC(N)C(O)C(C)O1 (centres undefined) + Cc1cccc(N(C)C(=O)C2C(O)CCN2c2nc(C)cc(C(F)(F)F)c2C#N)c1
- IC50 [1]: 59.7 nM
- IC50 [2]: 62.8 nM
- IC50 [3]: 61.5 nM
- IC50 [4]: 59.8 nM
- IC50 [5]: 48.6 nM
- IC50 [6]: 54.6 nM
- viability, T/C [7]: 72.9%
- viability, T/C [8]: 25.9%
- viability, T/C [9]: 22.1%
- viability, T/C [10]: 10.9%
- viability, T/C [11]: 0.31%
- viability, T/C [12]: 0.23%
- viability, T/C [13]: 71.8%
- viability, T/C [14]: 29.3%
- viability, T/C [15]: 26.9%
- viability, T/C [16]: 8.87%
- viability, T/C [17]: 1.7%
- viability, T/C [18]: 0.22%
- viability, T/C [19]: 70.3%
- viability, T/C [20]: 30.2%
- viability, T/C [21]: 24.2%
- viability, T/C [22]: 9.69%
- viability, T/C [23]: 0.35%
- viability, T/C [24]: 0.28%
- viability, T/C [25]: 67.8%
- viability, T/C [26]: 30.9%
- viability, T/C [27]: 26.6%
- viability, T/C [28]: 9.52%
- viability, T/C [29]: 0.41%
- viability, T/C [30]: 0.32%
- viability, T/C [31]: 56.3%
- viability, T/C [32]: 38.4%
- viability, T/C [33]: 25.6%
- viability, T/C [34]: 6.92%
- viability, T/C [35]: 0.38%
- viability, T/C [36]: 0.33%
- viability, T/C [37]: 63.8%
- viability, T/C [38]: 33%
- viability, T/C [39]: 22%
- viability, T/C [40]: 7.02%
- viability, T/C [41]: 0.38%
- viability, T/C [42]: 0.49%

SMILES: O=c1[nH]cc(F)c(=O)[nH]1
- viability, T/C (compound 0.0316 µM): 107% and 104% and 112%
- viability, T/C (compound 0.1 µM): 103% and 102% and 99.7%
- viability, T/C (compound 0.316 µM): 101% and 92.2% and 104%
- viability, T/C (compound 1 µM): 99.9% and 71.4% and 92.9%
- viability, T/C (compound 3.16 µM): 50.8% and 29.6% and 53.3%
- viability, T/C (compound 10 µM): 32.6% and 40.2% and 36.8%
- IC50 (curve of compound): 3340 nM and 1960 nM and 4010 nM

SMILES: CC1COCCN1c1cc(C2(O)CC3CCC(C2)O3)c2cnn(-c3ccn[nH]3)c2n1 (centres undefined)
- viability, T/C (compound 0.0316 µM): 100% and 99.2% and 87.4%
- viability, T/C (compound 0.1 µM): 71.6% and 69.7% and 51.4%
- viability, T/C (compound 0.316 µM): 29.2% and 34.4% and 21.1%
- viability, T/C (compound 1 µM): 24.1% and 25.3% and 11.3%
- viability, T/C (compound 3.16 µM): 23.8% and 24.9% and 15.1%
- viability, T/C (compound 10 µM): 14.6% and 14.2% and 9.62%
- IC50 (curve of compound): 181 nM and 194 nM and 106 nM

SMILES: COc1ccc([C@@H](O)c2cc(-c3ncnc4cc(N5CCOCC5)ccc34)c(F)cc2Cl)nn1 + COC1C(OC(N)=O)C(O)C(Oc2ccc3c(O)c(NC(=O)c4ccc(O)c(CC=C(C)C)c4)c(=O)oc3c2C)OC1(C)C
- IC50 [1]: 9500 nM
- IC50 [2]: > 10000 nM
- IC50 [3]: > 10000 nM
- IC50 [4]: > 10000 nM
- IC50 [5]: > 10000 nM
- IC50 [6]: > 10000 nM
- viability, T/C [7]: 97.9%
- viability, T/C [8]: 99.5%
- viability, T/C [9]: 99%
- viability, T/C [10]: 94.4%
- viability, T/C [11]: 75.2%
- viability, T/C [12]: 48.8%
- viability, T/C [13]: 104%
- viability, T/C [14]: 106%
- viability, T/C [15]: 96.7%
- viability, T/C [16]: 98.2%
- viability, T/C [17]: 73.2%
- viability, T/C [18]: 52.5%
- viability, T/C [19]: 112%
- viability, T/C [20]: 107%
- viability, T/C [21]: 98.3%
- viability, T/C [22]: 95%
- viability, T/C [23]: 71.7%
- viability, T/C [24]: 51.3%
- viability, T/C [25]: 113%
- viability, T/C [26]: 102%
- viability, T/C [27]: 115%
- viability, T/C [28]: 103%
- viability, T/C [29]: 65.6%
- viability, T/C [30]: 51.4%
- viability, T/C [31]: 112%
- viability, T/C [32]: 107%
- viability, T/C [33]: 98.8%
- viability, T/C [34]: 88.3%
- viability, T/C [35]: 78.8%
- viability, T/C [36]: 54.2%
- viability, T/C [37]: 116%
- viability, T/C [38]: 93.3%
- viability, T/C [39]: 93.3%
- viability, T/C [40]: 83.5%
- viability, T/C [41]: 76.3%
- viability, T/C [42]: 50.6%

SMILES: COc1cccc(OCCCN)c1-c1cc(Nc2cnc(C#N)cn2)n[nH]1
- viability, T/C (compound 0.00316 µM): 99.7% (2×) and 101%
- viability, T/C (compound 0.01 µM): 70.4% and 75.3% and 73%
- viability, T/C (compound 0.0316 µM): 7.56% and 10.8% and 14.6%
- viability, T/C (compound 0.1 µM): 5.87% and 6.45% and 6.4%
- viability, T/C (compound 0.316 µM): 4.59% and 5.13% and 4.47%
- viability, T/C (compound 1 µM): 4.4% and 5.18% and 4.15%
- IC50 (curve of compound): 14.5 nM and 15.7 nM and 15.8 nM

SMILES: COc1cc2cc(C(=O)CCC(=O)O)sc2cc1OC
- viability, T/C (compound 0.0316 µM): 101% and 105% (2×)
- viability, T/C (compound 0.1 µM): 101% (2×) and 99.3%
- viability, T/C (compound 0.316 µM): 100% and 105% and 108%
- viability, T/C (compound 1 µM): 96.9% and 103% and 106%
- viability, T/C (compound 3.16 µM): 94.2% and 105% and 114%
- viability, T/C (compound 10 µM): 96.2% and 95.3% and 93.4%
- IC50 (curve of compound): > 10000 nM

SMILES: CCCS(=O)(=O)Nc1ccc(F)c(C(=O)c2c[nH]c3ncc(-c4ccc(Cl)cc4)cc23)c1F
- viability, T/C (compound 0.0316 µM): 111% and 107% and 105%
- viability, T/C (compound 0.1 µM): 107% (2×) and 110%
- viability, T/C (compound 0.316 µM): 108% (2×) and 115%
- viability, T/C (compound 1 µM): 109% and 111% and 104%
- viability, T/C (compound 3.16 µM): 116% and 110% and 112%
- viability, T/C (compound 10 µM): 33% and 37.7% and 50.1%
- IC50 (curve of compound): 7770 nM and 8190 nM and > 10000 nM
